{"source": "paper PMC5407577", "about": "“Functional and genetic evidence that nucleoside transport is highly conserved in Leishmania species: Implications for pyrimidine-based chemotherapy” (International Journal for Parasitology: Drugs and Drug …, 2017)", "key": {"[1]": {"system": "LmajNT2", "experiment": "[3H]-inosine transport by T. brucei B48 cells expressing LmajNT2", "type": "cell-based, Leishmania major", "conditions": "250 μM adenosine", "procedure": "Plasmid construction and transfection was performed according to [Munday et al. (2013)]. The nucleoside transporter genes were isolated from L. mexicana and L. major. […] The primers used in this study (Table S2) were designed to flank the gene of interest, one complementary to the sequence upstream of the 5′ end and the other complementary to the sequence downstream of the 3′ end. All of the nucleoside transporters genes were PCR-amplified from genomic DNA of each strain using the high-fidelity proof-reading polymerase Phusion (New England Biolabs) and cloned into the pGEMTeasy (Promega) vector prior to Sanger sequencing (Source BioScience, Glasgow, UK). […] After confirming the identity of each gene, the nucleoside transporter genes (LmajNT1A, LmajNT1B, LmajNT2, LmexNT1A, LmexNT1B, and LmexNT2) were ligated into the expression vector pHD1336 ([Biebinger et al., 1997]) and then were linearized with NotI digestion. All genes were verified by Sanger sequencing, prior to transfection into T. b. brucei clone B48. B48 parasites (1 × 10^7 cells) were washed into Human T Cell buffer for transfection using the desired cassette with an Amaxa Nucleofector using program X-001. Cells were transferred into pre-warmed HMI-9 medium and allowed to recover for 8–16 h at 37 °C and 5% CO2. Following recovery, transfectants were grown and cloned in selective medium containing 5 μg ml^−1 blasticidin S using limiting dilution.\n(§1) Using the standard uptake technique as described for T. brucei and Leishmania species ([Wallace et al., 2002], [Al-Salabi and De Koning, 2005], [Gudin et al., 2006]), the dose- or time-dependent uptake of radiolabeled permeants was investigated.\nBriefly, cells in the mid-to-late logarithmic stage of growth were harvested by centrifugation for 10 min at 1500×g. […] Radioactivity was determined by liquid scintillation counting in a Beckman LS6000 TA scintillation counter. […]"}, "[2]": {"target": "LmexNT1", "type": "cell-based, Leishmania mexicana", "conditions": "inhibition of 0.25 μM [3H]-uridine uptake in the presence of 1 mM uracil", "how_it_was_run": "(§2)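 Mid-to-late log-phase parasites were washed and held at 10^8 cells ml^−1 in HEPES/bicarbonate buffer with glucose, pH 7.3, then incubated at ambient temperature with radiolabelled permeant, with or without unlabelled substrate or inhibitors. Uptake was stopped with ice-cold excess unlabelled permeant and oil centrifugation, then counted by scintillation; saturation, inhibition and time-course data fitted by regression, in triplicate.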"}, "[3]": {"system": "Lmex5F2′dURes", "type": "cell-based, Leishmania mexicana", "conditions": "0.5 μM [3H]-uridine; 0.1 μM [3H]-adenosine; 0.25 μM [3H]-uracil", "how_it_was_run": "as §2"}, "[4]": {"system": "L. mexicana promastigotes", "type": "cell-based, Leishmania mexicana", "conditions": "maximal inhibition; uracil up to 2.5 mM (Fig. 3B)", "how_it_was_run": "as §2"}, "[5]": {"system": "LdNT1.1", "design": "method as in Vasudevan et al., 1998; Landfear, 2001", "conditions": "ref Vasudevan et al., 1998; Landfear, 2001; cited from earlier work"}, "[6]": {"target": "LmajUUT1", "experiment": "[3H]-uridine uptake by L. major promastigotes, high-affinity uracil-sensitive component", "type": "cell-based, Leishmania major", "conditions": "inhibition of 0.25 μM [3H]-uridine uptake", "procedure": "as §1\n(§3) Briefly, cells in the mid-to-late logarithmic stage of growth were harvested by centrifugation for 10 min at 1500×g. The cells were washed twice with transport assay buffer (AB: 33 mM HEPES, 98 mM NaCl, 4.6 mM KCl, 0.55 mM CaCl2, 0.07 mM MgSO4, 5.8 mM NaH2PO4, 0.3 mM MgCl2, 23 mM NaHCO3, 14 mM glucose, pH 7.3), resuspended at a density of 10^8 cells ml^−1 in AB, and left for 20–30 min at room temperature to recover from centrifugation stress. One hundred microliters of cell suspension was incubated at ambient temperature for a predetermined time with 100 μl radiolabeled test compound, in the presence or absence of unlabeled substrate or other competitive inhibitors. The incubation was terminated by the addition of ice-cold stop solution (AB containing saturating levels, usually 10 mM, of unlabeled permeant) and centrifugation through oil for 1 min at 13,000 × g. […] Radioactivity was determined by liquid scintillation counting in a Beckman LS6000 TA scintillation counter. Saturation data, inhibition data, and time courses were plotted to equations for linear or non-linear regression (hyperbolic or sigmoid curves), as appropriate. All experiments were performed in triplicate and on at least three independent occasions."}, "[7]": {"system": "T. b. brucei strain B48", "experiment": "[3H]-inosine uptake in non-transfected T. brucei B48", "type": "cell-based, Trypanosoma brucei brucei", "conditions": "250 μM adenosine or 1 mM unlabeled inosine (Fig. 7B)", "procedure": "as §1, §3"}, "[8]": {"system": "LmexNT1", "experiment": "[3H]-adenosine uptake by L. mexicana promastigotes", "type": "cell-based, Leishmania mexicana", "from_the_text": "Using the standard uptake technique as described for T. brucei and Leishmania species ([Wallace et al., 2002], [Al-Salabi and De Koning, 2005], [Gudin et al., 2006]), the dose- or time-dependent uptake of radiolabeled permeants was investigated. The following radiolabels and specific activities were used: [^3H]-thymidine (Perkin Elmer; 56.6 Ci/mmol); [^3H]-adenosine (American Radiolabeled Chemicals UK; 40 Ci/mmol); [^3H]-uridine (American Radiolabeled Chemicals UK; 30 Ci/mmol); [^3H]-uracil (Perkin Elmer; 24.8 Ci/mmol); [^3H]-inosine (American Radiolabeled Chemicals UK; 20 Ci/mmol); [^3H]-5-fluorouracil (Moravek; 20 Ci/mmol).\nas §3\nWe next investigated the transport of [^3H]-adenosine in L. mexicana promastigotes, which according to the efficient inhibition of [^3H]-thymidine by adenosine, should be taken up with high affinity."}, "[9]": {"target": "LmajNT1", "experiment": "[3H]-uridine uptake by L. major promastigotes, low-affinity component", "type": "cell-based, Leishmania major", "conditions": "inhibition of 0.25 μM [3H]-uridine uptake", "procedure": "as §1, §3"}, "[10]": {"target": "LmexNT1", "type": "cell-based, Leishmania mexicana", "conditions": "inhibition of 1 μM [3H]-thymidine uptake, 20 s", "procedure": "as §1, §3\nL. donovani is known to express one pyrimidine nucleoside transporter, LdNT1, which also transports adenosine ([Vasudevan et al., 1998], [De Koning et al., 2005]). In order to investigate whether this model held true for L. mexicana, the uptake of [^3H]-thymidine was studied. […] Care was taken throughout this study that whenever inhibition constants (Ki) or Michaelis-Menten constants (Km) were determined the conditions used had been verified to be well within the linear range of uptake."}, "[11]": {"target": "LmajNT1", "experiment": "[3H]-thymidine uptake by L. major promastigotes", "type": "cell-based, Leishmania major", "conditions": "inhibition of 0.25 μM [3H]-thymidine uptake (total LmajNT1.1 + LmajNT1.2), 5 min"}, "[12]": {"target": "L. major promastigotes", "experiment": "total [3H]-uridine uptake by L. major promastigotes", "type": "cell-based, Leishmania major", "conditions": "complete inhibition of [3H]-uridine transport (both components)", "procedure": "as §1, §3"}, "[13]": {"system": "LdNT1.2", "design": "method as in Vasudevan et al., 1998; Landfear, 2001", "conditions": "ref Vasudevan et al., 1998; Landfear, 2001; cited from earlier work"}}, "note": "Where two headings read alike, the source gives them in different places."}
{"compound": "Nc1ncnc2c1ncn2[C@@H]1O[C@H](CO)[C@@H](O)[C@H]1O", "note": "[adenosine]", "values": [{"measurement": "inhibition of 50 nM [3H]-inosine transport", "setting": "[1]", "value": 57, "unit": "%"}, {"measurement": "Ki", "setting": "[2]", "value": "0.39 ± 0.09", "unit": "µM"}, {"measurement": "uptake of radiolabel, reduced compared to WT control cells", "setting": "[3]", "value": 89, "unit": "%"}, {"measurement": "inhibition of 0.25 μM [3H]-uridine transport", "setting": "[4]", "value": "~100", "unit": "%"}, {"measurement": "Km", "setting": "[5]", "value": "~0.2", "unit": "µM"}, {"measurement": "Ki", "setting": "[6]", "value": "1.93 ± 0.49", "unit": "µM"}, {"measurement": "inhibition of 50 nM [3H]-inosine transport", "setting": "[7]", "value": "fully inhibited"}, {"measurement": "rate of transport", "setting": "[8]; 0.1 μM [3H]-adenosine, linear over at least 30 s", "value": "0.21 ± 0.01 pmol(10^7 cells)^−1s^−1"}, {"measurement": "Km", "setting": "[8]; [3H]-adenosine", "value": "0.81 ± 0.16", "unit": "µM"}, {"measurement": "Vmax", "setting": "[8]; [3H]-adenosine", "value": "1.11 ± 0.19 pmol(10^7 cells)^−1s^−1"}, {"measurement": "Ki", "setting": "[9]", "value": "1.93 ± 0.49", "unit": "µM"}, {"measurement": "Ki", "setting": "[10]", "value": "0.25 ± 0.04", "unit": "µM"}, {"measurement": "Ki", "setting": "[11]", "value": "1.77 ± 0.21", "unit": "µM"}, {"measurement": "Ki", "setting": "[12]", "value": "1.93 ± 0.49", "unit": "µM"}, {"measurement": "Km", "setting": "[13]", "value": "~5", "unit": "µM"}]}
